Where a name gives a salt, the structure may show the parent alone.
Columns and labels:
[1] = tested on: JAK1-dependent STAT6 phosphorylation downstream of IL-13 stimulation in TF-1 human erythroleukemia cells; assay: JAK1 pathway assay in TF-1 cells (IL-13-pSTAT6, MSD); assay type: cell-based; conditions: Homo sapiens, TF-1, TF-1 cells, read-out: IL13-pSTAT6 EC50_TF-1
Experimental: JAK1 Pathway Assay in Cell Lines was Carried Out as Follows:
Inhibitor potency (EC50) was determined in cell-based assays designed to measure JAK1 dependent STAT phosphorylation.
In one assay approach, TF-1 human erythroleukemia cells obtained from the American Type Culture Collection (ATCC; Manassas, Va.) were used to measure JAK1-dependent STAT6 phosphorylation downstream of IL-13 stimulation. Prior to use in the assays, TF-1 cells were starved of GM-CSF overnight in OptiMEM medium (Life Technologies, Grand Island, N.Y.) supplemented with 0.5% charcoal/dextran stripped fetal bovine serum (FBS), 0.1 mM non-essential amino acids (NEAA), and 1 mM sodium pyruvate. The assays were run in 384-well plates in serum-free OptiMEM medium using 300,000 cells per well. In a second assay approach, BEAS-2B human bronchial epithelial cells obtained from ATCC were plated at 100,000 cells per well of a 96-well plate one day prior to the experiment. The BEAS-2B assay was run in complete growth medium (bronchial epithelial basal medium plus bulletkit; Lonza; Basel, Switzerland).
Test compounds were serially diluted 1:2 in DMSO and then diluted 1:50 in medium just before use. Diluted compounds were added to the cells, for a final DMSO concentration of 0.2%, and incubated for 30 min (for the TF-1 assay) or 1 hr (for the BEAS-2B assay) at 37° C. Then, cells were stimulated with human recombinant cytokine at their respective EC90 concentrations, as previously determined for each individual lot. Cells were stimulated with IL-13 (R&D Systems, Minneapolis, Minn.) for 15 min at 37° C. The TF-1 cell reactions were stopped by the direct addition of 10× lysis buffer (Cell Signaling Technologies, Danvers, Mass.), whereas the BEAS-2B cell incubations were halted by the removal of medium and addition of 1× lysis buffer. The resultant samples were frozen in the plates at −80° C. Compound mediated inhibition of STAT6 phosphorylation was measured in the cell lysates using MesoScale Discovery (MSD) technology (Gaithersburg, Md.).

[2] = biological target: isolated recombinant JAK1 kinase domain (Homo sapiens (Human), UniProt P23458); assay: JAK1 enzyme assay (Caliper LabChip, peptide phosphorylation); assay type: biochemical; conditions: isolated recombinant JAK1 kinase domain, 25 μM ATP
isolated recombinant JAK1 kinase domain, sequence (P23458 875-1153): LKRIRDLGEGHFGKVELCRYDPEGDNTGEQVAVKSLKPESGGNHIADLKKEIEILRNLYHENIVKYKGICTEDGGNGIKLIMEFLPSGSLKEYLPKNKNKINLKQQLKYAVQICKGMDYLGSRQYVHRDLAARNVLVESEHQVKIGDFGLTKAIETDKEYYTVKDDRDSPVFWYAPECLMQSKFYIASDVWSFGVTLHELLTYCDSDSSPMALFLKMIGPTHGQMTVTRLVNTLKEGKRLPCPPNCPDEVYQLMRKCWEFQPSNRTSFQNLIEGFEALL

[3] = biological target: isolated recombinant JAK2 kinase domain (Homo sapiens (Human), UniProt O60674); assay: JAK2 enzyme assay (Caliper LabChip, peptide phosphorylation); assay type: biochemical; conditions: 25 μM ATP
isolated recombinant JAK2 kinase domain, sequence (O60674 849-1124): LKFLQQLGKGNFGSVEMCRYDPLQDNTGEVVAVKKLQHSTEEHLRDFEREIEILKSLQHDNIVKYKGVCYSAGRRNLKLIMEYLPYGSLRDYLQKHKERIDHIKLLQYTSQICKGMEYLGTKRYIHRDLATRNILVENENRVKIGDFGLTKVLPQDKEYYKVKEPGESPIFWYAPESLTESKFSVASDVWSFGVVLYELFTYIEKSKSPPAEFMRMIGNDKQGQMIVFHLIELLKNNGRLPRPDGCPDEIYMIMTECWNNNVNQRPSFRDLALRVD

EC50 [1] [nM] | Ki [2] [nM] | Ki [3] [nM] | Structure (SMILES)
547 | 0.66 | 0.8 | O=C(Nc1cn(CC(=O)N2C[C@H]3CNC[C@H]3C2)nc1-c1cc(Cl)ccc1OC(F)F)c1cnn2cccnc12 [Example 4, Cis-pyrazolo[1,5-a]pyrimidine-3-carboxylic acid {3-(5-chloro-2-difluoromethoxyphenyl)-1-[2-(hexahydropyrrolo[3,4-c]pyrrol-2-yl)-2-oxoethyl]-1H-pyrazol-4-yl}amide]
11.1 | 0.84 | 0.78 | CCN1C[C@@H]2CN(C(=O)Cn3cc(NC(=O)c4cnn5cccnc45)c(-c4cc(Cl)ccc4OC(F)F)n3)C[C@@H]2C1 [Example 5, Cis pyrazolo[1,5-a]pyrimidine-3-carboxylic acid {3-(5-chloro-2-difluoromethoxyphenyl)-1-[2-(5ethyl-hexahydro-pyrrolo[3,4-c]pyrrol-2-yl)-2-oxoethyl]-1H-pyrazol-4-yl}amide hydrochloride]
5.9 | 0.71 | 0.75 | O=C(Nc1cn(CC(=O)N2C[C@H]3CN(CC4CC4)C[C@H]3C2)nc1-c1cc(Cl)ccc1OC(F)F)c1cnn2cccnc12 [Example 6, Cis-pyrazolo[1,5-a]pyrimidine-3-carboxylic acid {3-(5-chloro-2-difluoromethoxyphenyl)-1-[2-(5-cyclopropylmethylhexahydropyrrolo[3,4-c]pyrrol-2-yl)-2-oxoethyl]-1H-pyrazol-4-yl}amide]
1040 | 1.1 | 0.96 | CN1C[C@@H]2CN(C(=O)Cn3cc(NC(=O)c4cnn5ccc(N)nc45)c(-c4cc(Cl)ccc4OC(F)F)n3)C[C@@H]2C1 [Example 7, 5-Amino-pyrazolo[1,5-a]pyrimidine-3-carboxylic acid {3-(5-chloro-2-difluoromethoxy-phenyl)-1-[2-((3aR,6aS)-5-methyl-hexahydro-pyrrolo[3,4-c]pyrrol-2-yl)-2-oxo-ethyl]-1H-pyrazol-4-yl}-amide hydrochloride]
746 | 96.3 | 120 | Cc1cnc2c(C(=O)Nc3cn(CC(=O)N4C[C@H]5CN(C)C[C@H]5C4)nc3-c3cc(Cl)ccc3OC(F)F)cnn2c1 [Example 8, 6-Methyl-pyrazolo[1,5-a]pyrimidine-3-carboxylic acid {3-(5-chloro-2-difluoromethoxy-phenyl)-1-[2-((3aR,6aS)-5-methyl-hexahydro-pyrrolo[3,4-c]pyrrol-2-yl)-2-oxo-ethyl]-1H-pyrazol-4-yl}-amide hydrochloride]
11.8 | 1.05 | 0.3 | CCN1CC2CN(C(=O)Cn3cc(NC(=O)c4c(N)nn5cccnc45)c(-c4cc(Cl)ccc4OC(F)F)n3)CC2C1 (stereo not drawn) [Example 11, 2-amino-N-[3-[5-chloro-2-(difluoromethoxy)phenyl]-1-[2-(2-ethyl-1,3,3a,4,6,6a-hexahydropyrrolo[3,4-c]pyrrol-5-yl)-2-oxo-ethyl]pyrazol-4-yl]pyrazolo[1,5-a]pyrimidine-3-carboxamide]
15 | 1.3 | 1.17 | CC(C)N1C[C@H]2CN(C(=O)Cn3cc(NC(=O)c4cnn5cccnc45)c(-c4cc(Cl)ccc4OC(F)F)n3)C[C@H]2C1 [Example 12, N-[1-[2-[(3aS,6aR)-2-isopropyl-1,3,3a,4,6,6a-hexahydropyrrolo[3,4-c]pyrrol-5-yl]-2-oxo-ethyl]-3-[5-chloro-2-(difluoromethoxy)phenyl]pyrazol-4-yl]pyrazolo[1,5-a]pyrimidine-3-carboxamide]
22 | 0.73 | 0.66 | O=C(Nc1cn(CC(=O)N2C[C@H]3CN(CCc4ccccc4)C[C@H]3C2)nc1-c1cc(Cl)ccc1OC(F)F)c1cnn2cccnc12 [Example 13, N-[1-[2-[(3aS,6aR)-2-(2-phenylethyl)-1,3,3a,4,6,6a-hexahydropyrrolo[3,4-c]pyrrol-5-yl]-2-oxo-ethyl]-3-[5-chloro-2-(difluoromethoxy)phenyl]pyrazol-4-yl]pyrazolo[1,5-a]pyrimidine-3-carboxamide]
335 | 1.14 | 1.13 | O=C(Nc1cn(CC(=O)N2C[C@H]3CN(CCCO)C[C@H]3C2)nc1-c1cc(Cl)ccc1OC(F)F)c1cnn2cccnc12 [Example 14, N-[1-[2-[(3aR,6aS)-2-(3-hydroxypropyl)-1,3,3a,4,6,6a-hexahydropyrrolo[3,4-c]pyrrol-5-yl]-2-oxo-ethyl]-3-[5-chloro-2-(difluoromethoxy)phenyl]pyrazol-4-yl]pyrazolo[1,5-a]pyrimidine-3-carboxamide]
334 | 0.53 | 0.93 | O=C(Nc1cn(CC(=O)N2C[C@@H]3CN(C(=O)OCCCO)C[C@@H]3C2)nc1-c1cc(Cl)ccc1OC(F)F)c1cnn2cccnc12 [Example 15, 3-hydroxypropyl (3aR,6aS)-2-[2-[3-[5-chloro-2-(difluoromethoxy)phenyl]-4-(pyrazolo[1,5-a]pyrimidine-3-carbonylamino)pyrazol-1-yl]acetyl]-1,3,3a,4,6,6a-hexahydropyrrolo[3,4-c]pyrrole-5-carboxylate]
8.1 | 0.62 | 0.56 | CN1C[C@@H]2CN(C(=O)Cn3cc(NC(=O)c4cnn5cccnc45)c(-c4cc(Cl)ccc4OC(F)F)n3)C[C@]2(c2ccccc2)C1 [Example 16, N-[1-[2-[(3aR,6aR)-2-methyl-3a-phenyl-3,4,6,6a-tetrahydro-1H-pyrrolo[3,4-c]pyrrol-5-yl]-2-oxo-ethyl]-3-[5-chloro-2-(difluoromethoxy)phenyl]pyrazol-4-yl]pyrazolo[1,5-a]pyrimidine-3-carboxamide]
80.9 | 0.71 | 0.85 | O=C(Nc1cn(CC(=O)N2C[C@H]3CN(CC4CCN(C(=O)OCc5ccccc5)CC4)C[C@H]3C2)nc1-c1cc(Cl)ccc1OC(F)F)c1cnn2cccnc12 [Example 17, benzyl 4-[[(3aR,6aS)-5-[2-[3-[5-chloro-2-(difluoromethoxy)phenyl]-4-(pyrazolo[1,5-a]pyrimidine-3-carbonylamino)pyrazol-1-yl]acetyl]-1,3,3a,4,6,6a-hexahydropyrrolo[3,4-c]pyrrol-2-yl]methyl]piperidine-1-carboxylate]
274 | 0.56 | 0.56 | O=C(Nc1cn(CC(=O)N2C[C@H]3CN(CCCN4CCCC4=O)C[C@H]3C2)nc1-c1cc(Cl)ccc1OC(F)F)c1cnn2cccnc12 [Example 18, N-[1-[2-[(3aR,6aS)-2-[3-(2-oxopyrrolidin-1-yl)propyl]-1,3,3a,4,6,6a-hexahydropyrrolo[3,4-c]pyrrol-5-yl]-2-oxo-ethyl]-3-[5-chloro-2-(difluoromethoxy)phenyl]pyrazol-4-yl]pyrazolo[1,5-a]pyrimidine-3-carboxamide]
379 | 0.72 | 0.71 | O=C(Nc1cn(CC(=O)N2C[C@H]3CN(CCCN4CCOCC4)C[C@H]3C2)nc1-c1cc(Cl)ccc1OC(F)F)c1cnn2cccnc12 [Example 19, N-[1-[2-[(3aR,6aS)-2-(3-morpholinopropyl)-1,3,3a,4,6,6a-hexahydropyrrolo[3,4-c]pyrrol-5-yl]-2-oxo-ethyl]-3-[5-chloro-2-(difluoromethoxy)phenyl]pyrazol-4-yl]pyrazolo[1,5-a]pyrimidine-3-carboxamide]
344 | 0.51 | 1.21 | O=C(Nc1cn(CC(=O)N2CC[C@@H]3CNCC[C@@H]32)nc1-c1cc(Cl)ccc1OC(F)F)c1cnn2cccnc12 [Example 20, N-[1-[2-[(3aR,7aS)-2,3,3a,4,5,6,7,7a-octahydropyrrolo[3,2-c]pyridin-1-yl]-2-oxo-ethyl]-3-[5-chloro-2-(difluoromethoxy)phenyl]pyrazol-4-yl]pyrazolo[1,5-a]pyrimidine-3-carboxamide]
3040 | 0.47 | 1.16 | O=C(Nc1cn(CC(=O)N2CC[C@H]3CNC[C@H]3C2)nc1-c1cc(Cl)ccc1OC(F)F)c1cnn2cccnc12 [Example 21, N-[1-[2-[(3aS,7aR)-1,2,3,3a,4,6,7,7a-octahydropyrrolo[3,4-c]pyridin-5-yl]-2-oxo-ethyl]-3-[5-chloro-2-(difluoromethoxy)phenyl]pyrazol-4-yl]pyrazolo[1,5-a]pyrimidine-3-carboxamide]
